Measured values as given in article PMC9877305, “Cytotoxic hexadepsipeptides and anti-coronaviral 4-hydroxy-2-pyridones from an endophytic Fusarium sp” (Frontiers in Chemistry, 2023).
≈ marks a conversion by molar mass, not a printed value.

Experiments:
[1] = tested on: human pancreatic cancer cell line (ASPC-1); assay: Cytotoxic activity by CCK-8 method; assay type: cell-based
Procedure: The cytotoxic effects of all compounds against human pancreatic cancer cell line (ASPC-1) were evaluated by CCK-8 method.

H460 cells = assay: Half toxic concentration in the antiviral assay host cells; assay type: cell-based
Procedure: (§1) Briefly, the H460 cells were inoculated into 96 well culture plates and cultured at 35°C under 5% CO2 condition, and infected by HCoV-OC43 virus with 100 times 50% tissue culture infective dose (TCID50) 24 h later; then the positive control drugs and test compounds were added. The half inhibitory concentration (IC50) and the half toxic concentration (TC50) were determined by the Reed and Muench method. The selectivity index (SI) was calculated as the ratio of TC50/IC50.

coronavirus (HCoV-OC43) = assay: microbe, parasite or virus in culture; assay type: cell-based; details: for SI (TC50/IC50): HCoV-OC43 in H460 cells
Procedure: as §1

[2] = tested on: pancreatic cancer cell line PANC-1; design: method as in Wang et al., 2019; details: PANC-1 cells; ref Wang et al., 2019; cited from earlier work
[3] = Homo sapiens, ASPC1, AsPC-1 cells
[4] = Betacoronavirus 1, OC43, NCI-H460, HCoV-OC43 (100 TCID50) in H460 cells

Molecule	IC50 [1, 3] [µM]	TC50 (H460 cells) [µg/mL]	IC50 (coronavirus (HCoV-OC43); [4]) [µg/mL]	also measured
CC(C)C(O)C(=O)N(C)C(Cc1ccccc1)C(=O)OC(C(=O)N(C)C(Cc1ccccc1)C(=O)OC(C(=O)N(C)C(Cc1ccccc1)C(=O)O)C(C)C)C(C)C (centres unmarked) [Compound 1, Secobeauvericin A]	> 90			
CC(C)C1OC(=O)C(Cc2ccccc2)NC(=O)C(C(C)C)OC(=O)C(Cc2ccccc2)N(C)C(=O)C(C(C)C)OC(=O)C(Cc2ccccc2)NC1=O (centres unmarked) [Compound 2, Beauvericin M]	> 90			melting point: 85 to 86 °C
CC1OC(=O)C(Cc2ccccc2)N(C)C(=O)C(C(C)C)OC(=O)C(Cc2ccccc2)N(C)C(=O)C(C(C)C)OC(=O)C(Cc2ccccc2)N(C)C1=O (centres unmarked) [Compound 3, Beauvericin N]	> 90			melting point: 82 to 83 °C
CC(C)C1OC(=O)C(Cc2ccccc2)N(C)C(=O)C(C(C)C)OC(=O)C(Cc2ccccc2)N(C)C(=O)C(C(C)C)OC(=O)C(Cc2ccccc2)NC1=O (centres unmarked) [Compound 5, beauvericin D]	> 90			
CC[C@H](C)C[C@@H](C)/C=C(\C)[C@@H]1O[C@H](c2c(O)c(-c3ccc(O)cc3)cn(C)c2=O)CC[C@H]1C [Compound 6, (–)-sambutoxin]	> 90	<0.02		
CC[C@H](C)C[C@@H](C)/C=C(\C)[C@@H]1O[C@H](c2c(O)c([C@@]3(O)CCC(=O)C[C@@H]3O)cn(C)c2=O)CC[C@H]1C [Compound 7, (–)-oxysporidinone]	17.6	23.09 (≈ 47.2 µM)	13.3 (≈ 27.2 µM)	SI (TC50/IC50) (coronavirus (HCoV-OC43)): 1.7
CC[C@H](C)C[C@@H](C)/C=C(\C)[C@@H]1O[C@H](c2c3c(cn(C)c2=O)[C@@]2(O)CCC(=O)C[C@@H]2O3)CC[C@H]1C [Compound 8, fusapyridon A]	29.7	11.55 (≈ 24.5 µM)	6.67 (≈ 14.1 µM)	IC50 (coronavirus (HCoV-OC43); Betacoronavirus 1, OC43, NCI-H460, HCoV-OC43, unit as printed in running text): 6.65 µg/mL (≈ 14.1 µM); SI (TC50/IC50) (coronavirus (HCoV-OC43)): 1.7
CC[C@H](C)C[C@@H](C)/C=C(\C)[C@@H]1O[C@H](c2c3c(cn(C)c2=O)[C@@]2(OC)CCC(=O)C[C@@H]2O3)CC[C@H]1C [Compound 9, (–)-fusoxypyridone]	18.8	11.55 (≈ 23.8 µM)	> 6.67	
CC(C)=CCc1c(O)cc(O)c(C=O)c1C(=O)c1c(O)cc(C)c(Cl)c1O [E]				IC50 [2]: 7.2 µM
Nc1ccn([C@@H]2O[C@H](CO)[C@@H](O)C2(F)F)c(=O)n1 [Gemcitabine, gemcitabine, reference compound]	1.53			
NC(=O)c1ncn([C@@H]2O[C@H](CO)[C@@H](O)[C@H]2O)n1 [Ribavirin, ribavirin, reference compound]		100 (≈ 409 µM)	19.2 (≈ 78.8 µM)	SI (TC50/IC50) (coronavirus (HCoV-OC43)): 5.2
beauvericin [Compound 4]				IC50 ([1]; AsPC-1 cells): 3.45 µM
